Test results taken from patent US20240216357A1 (SICHUAN HUIYU PHARMACEUTICAL CO., LTD., priority 2021, published 2024).
Counter-ions that a name gives are not always drawn. Like-named read-outs stand apart in the source and are kept apart here.

Legend:
LSD1 = LSD1 (Homo sapiens (Human), UniProt O60341); assay: LSD1 enzyme activity detection (HTRF); type: biochemical; settings: HTRF, H3K4me1 substrate; read-out: Inhibition of enzymatic activity of LSD1 IC50
NCI-H1417 cells = assay: In vitro cell proliferation detection (CellTiter-Glo, 7 days); type: cell-based; settings: NCI-H1417 cells, 7 days, CellTiter-Glo, read-out: NCI-H1417 proliferation inhibition IC50
CYP3A4 = CYP3A4 (Homo sapiens (Human), UniProt P08684); settings: microsomes
Sequence of CYP3A4 (P08684 whole entry): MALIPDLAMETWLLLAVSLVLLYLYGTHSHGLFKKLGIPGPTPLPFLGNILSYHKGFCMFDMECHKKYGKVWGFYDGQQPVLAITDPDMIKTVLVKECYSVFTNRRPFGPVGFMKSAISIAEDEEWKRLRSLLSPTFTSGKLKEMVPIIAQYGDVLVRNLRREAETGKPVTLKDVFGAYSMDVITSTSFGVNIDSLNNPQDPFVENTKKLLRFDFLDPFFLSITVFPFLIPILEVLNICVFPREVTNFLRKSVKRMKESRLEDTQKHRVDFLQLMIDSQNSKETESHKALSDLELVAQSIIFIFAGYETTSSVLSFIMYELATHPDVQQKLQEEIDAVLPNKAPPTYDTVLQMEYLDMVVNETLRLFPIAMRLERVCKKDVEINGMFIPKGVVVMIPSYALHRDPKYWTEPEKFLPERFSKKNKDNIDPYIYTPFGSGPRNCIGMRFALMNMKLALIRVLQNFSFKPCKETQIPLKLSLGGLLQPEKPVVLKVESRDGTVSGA

[1] = biological target: T1, voltage-gated potassium ion channel hERG (Homo sapiens (Human), UniProt Q12809)
T1 sequence (Q12809 whole entry): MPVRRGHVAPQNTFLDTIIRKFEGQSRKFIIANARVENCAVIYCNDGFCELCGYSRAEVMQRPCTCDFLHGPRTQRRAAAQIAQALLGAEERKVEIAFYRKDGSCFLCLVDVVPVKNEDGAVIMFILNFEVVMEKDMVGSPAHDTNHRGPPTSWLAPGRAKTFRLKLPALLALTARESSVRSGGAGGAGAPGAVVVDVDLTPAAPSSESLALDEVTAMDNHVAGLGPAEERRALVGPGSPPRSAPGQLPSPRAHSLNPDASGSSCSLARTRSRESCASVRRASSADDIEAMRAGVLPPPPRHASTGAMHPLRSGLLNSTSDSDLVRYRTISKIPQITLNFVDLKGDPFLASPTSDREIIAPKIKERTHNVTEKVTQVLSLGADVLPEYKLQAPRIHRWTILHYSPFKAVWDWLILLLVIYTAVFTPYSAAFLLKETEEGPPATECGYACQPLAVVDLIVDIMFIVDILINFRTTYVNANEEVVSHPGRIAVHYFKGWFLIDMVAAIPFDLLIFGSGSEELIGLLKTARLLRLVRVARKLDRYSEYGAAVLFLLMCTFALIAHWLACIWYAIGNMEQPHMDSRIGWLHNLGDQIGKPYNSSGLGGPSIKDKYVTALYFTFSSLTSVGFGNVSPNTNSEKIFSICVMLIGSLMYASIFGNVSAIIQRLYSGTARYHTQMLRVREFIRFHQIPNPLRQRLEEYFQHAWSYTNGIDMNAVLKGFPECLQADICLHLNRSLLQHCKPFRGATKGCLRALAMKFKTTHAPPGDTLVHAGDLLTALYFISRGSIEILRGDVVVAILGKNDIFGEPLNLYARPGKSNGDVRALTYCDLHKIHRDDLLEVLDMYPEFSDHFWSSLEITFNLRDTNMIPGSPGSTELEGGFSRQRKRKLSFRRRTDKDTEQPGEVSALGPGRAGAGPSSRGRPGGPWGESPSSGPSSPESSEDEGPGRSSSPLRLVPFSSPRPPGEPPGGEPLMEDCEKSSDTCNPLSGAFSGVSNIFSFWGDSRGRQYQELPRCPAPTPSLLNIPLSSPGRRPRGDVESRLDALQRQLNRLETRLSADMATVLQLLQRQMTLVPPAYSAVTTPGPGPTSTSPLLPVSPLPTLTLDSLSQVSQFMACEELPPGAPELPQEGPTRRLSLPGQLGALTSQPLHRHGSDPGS

[2] = rat, in vivo; for F: male, SD
in vivo = settings: male, SD, rat
in vitro = settings: human, Caco-2
Caco-2 cells = assay: Caco-2 permeability test; settings: for Mean Papp A to B: Caco-2, A to B; for Mean Papp A to B / Mean Papp B to A: 120 min; for Mean Papp B to A: Caco-2, B to A
[3] = biological target: T1, voltage-gated potassium ion channel hERG; assay: hERG inhibition test (manual patch-clamp); settings: read-out: hERG IC50; manual patch-clamp
Throughout, for Cmax: test concentration or dose not given here.

Cc1noc2cc(-c3c(-c4ccc(C#N)c(F)c4)nc(N4C5CCC4CC(N)C5)n4ccnc34)c(F)cc12 (centres unmarked) [Example 118, 4-(5-(3-amino-8-azabicyclo [3.2.1]octane-8-yl)-8-(5-fluoro-3-methylbenzo[d]isoxazol-6-yl)imidazolo[1,2 c]pyrimidin-7-yl)-2-fluorobenzonitrile]
IC50 (LSD1): 0.27 ± 0.01 nM
IC50 (NCI-H1417 cells; Homo sapiens, 168 h): 0.6 nM
IC50 (CYP3A4): 8680 nM
IC50 [1]: 13200 nM
F [2]: 12.1%
Cl [2]: 56.1
AUC(0-inf) (in vivo): 192 ng·h/mL
Cmax (in vivo): 26.9 ng/mL
Vd (in vivo): 20 L/kg
half-life (in vivo): 4.67 h

COc1ccc(-c2c(-c3ccc(C#N)c(F)c3)nc(N3C4CCC3CC(N)C4)n3ccnc23)cc1F (centres unmarked) [Example 120, 4-(5-(3-amino-8-azabicyclo[3.2.1]octane-8-yl)-8-(3-fluoro-4-methoxyphenyl)imidazolo[1,2-c]pyrimidin-7-yl)-2-fluorobenzonitrile]
IC50 (LSD1): 0.77 ± 0.43 nM
IC50 (NCI-H1417 cells; Homo sapiens, 168 h): 2.08 nM
IC50 (CYP3A4): 8930 nM
IC50 [1]: 7830 nM
F [2]: 14.4%
Cl [2]: 39.9
AUC(0-inf) (in vivo): 310 ng·h/mL
Cmax (in vivo): 34.7 ng/mL
Vd (in vivo): 14.5 L/kg
half-life (in vivo): 4.82 h
Papp A→B at 120 min (in vitro): 2.88 ×10⁻⁶ cm/s
Papp B→A at 120 min (in vitro): 7.37 ×10⁻⁶ cm/s
efflux ratio at 120 min (in vitro): 2.56

COc1ccc(-c2c(-c3ccc(C#N)c(F)c3)nc(N3C4CCC3CC(N)C4)n3ccnc23)cc1O (centres unmarked) [Example 155, 4-(5-(3-amino-8-azadicyclo[3.2.1]octane-8-yl)-8-(3-hydroxy-4-methoxyphenyl)imidazolo[1,2-c]pyrimidin-7-yl)-2-fluorobenzonitrile hydrochloride]
IC50 (LSD1): 0.2 ± 0.1 nM
IC50 (NCI-H1417 cells; Homo sapiens, 168 h): 0.352 nM
IC50 (CYP3A4): 18000 nM

N#Cc1ccc(-c2nc(N3C4CCC3CC(N)C4)n3ccnc3c2-c2cc3c(cc2F)OCO3)cc1F (centres unmarked) [Example 175, 4-(5-(3-amino-8-azabicyclo[3.2.1]octane-8-yl)-8-(6-fluorobenzo[d] [1,3]dioxane-5- -yl)imidazolo [1,2-c]pyrimidin-7-yl)-2-fluorobenzonitrile hydrochloride]
IC50 (LSD1): 3.2 ± 2.1 nM
IC50 (NCI-H1417 cells; Homo sapiens, 168 h): 4.13 nM
IC50 (CYP3A4): 8080 nM

N#CCn1ncc2cc(F)c(-c3sc(C(=O)N4C5CCC4CC(N)C5)cc3-c3ccc(C#N)c(F)c3)cc21 (centres unmarked) [Example 215, 4-(5-(3-amino-8-azabicyclo [3.2.1]octan-8-carbonyl)-2-(1-(cyanomethyl)-5-fluoro-1H-indazol-6-yl)thiophen-3-yl)-2-fluoro-benzonitrile]
IC50 (LSD1): 0.45 ± 0.05 nM
IC50 (NCI-H1417 cells; Homo sapiens, 168 h): 4.19 nM
IC50 [1]: 11400 nM

Cc1noc2cc(-c3sc(C(=O)N4C5CCC4CC(N)C5)nc3-c3ccc(C#N)c(F)c3)c(F)cc12 (centres unmarked) [Example 220, 4-(2-(3-amino-8-azabicyclo[3.2.1]octane-8-carbonyl)-5-(5-fluoro-3-methylbenzo[d]isoxazol-6-yl)thiazol-4-yl)-2-fluorobenzonitrile hydrochloride]
IC50 (LSD1): 0.42 ± 0.06 nM
IC50 (NCI-H1417 cells; Homo sapiens, 168 h): 1.32 nM
Papp A→B at 120 min (in vitro): 2.3 ×10⁻⁶ cm/s
Papp B→A at 120 min (in vitro): 6.21 ×10⁻⁶ cm/s
efflux ratio at 120 min (in vitro): 2.7

CS(=O)(=O)N1CCN(C(=O)c2cc(CCCN[C@@H]3C[C@H]3c3ccc(F)cc3)nc(-c3ccc(-n4cccn4)cc3)n2)CC1 [Example 257, (2-(4-(1H-pyrazol-1-yl)phenyl)-6-(3-((1R,2S)-2-(4-fluorophenyl)cyclopropyl)amino)pyrimidin-4-yl)(4-(methylsulfonyl)piperazin-1-yl)methanone]
Mean Papp A to B (Caco-2 cells): 1.54 10^−6 cm/s
Mean Papp B to A (Caco-2 cells): 4.55 10^−6 cm/s
IC50 [3]: 2830 nM

CS(=O)(=O)N1CCN(c2cc(CCCN[C@@H]3C[C@H]3c3ccc(F)cc3)nc(-c3ccc(C#N)cc3)n2)CC1 [Example 261, 4-(4-(3-(1R,2S)-2-(4-fluorophenyl)cyclopropyl)amino)-6-(4-(methylsulfonyl)piperazin-1-yl)pyri midin-2-yl)benzonitrile formate]
IC50 (NCI-H1417 cells): 3.22 nM
Efflux Ratio (Caco-2 cells; Caco-2): 1.38
Mean Papp A to B (Caco-2 cells): 0.49 10^−6 cm/s
Mean Papp B to A (Caco-2 cells): 0.67 10^−6 cm/s
